Laboratory results published in US10835524B2, “Compositions for the treatment of pancreatic cancer and uses thereof” (University of Florida Research Foundation, Incorporated, priority 2015, dated 2020).

Assays:
[1] = test system: 4 KRAS mutant PDAC cell lines (MIA PaCa-2, Panc-1, T182, E549); experiment: Viability of KRAS mutant PDAC cell lines after single-drug treatment, MTT assay at 72 hours; format: cell-based, human; murine; conditions: 4 PDAC cell lines
Experimental: We treated each cell line with the mTOR inhibitor Everolimus, the AKT inhibitor MK-2206, the dual PI-3K/mTOR inhibitor BEZ235, and the MEK inhibitor Selumetinib, or Compound P (mefloquine), prior to viability assessment at 72 hours via MTT assay.
To determine optimal doses for combination, we first analyzed the viability dose-response curves for each drug. […] The optimal dose for each drug was then serially diluted by one-half from the chosen optimal dose to 1/32nd of the chosen optimal dose, such that six combination points could be analyzed. Because the ratio of each drug in each experiment remained constant in all serial dilutions, we refer to this method as the “fixed molar ratio method”.

[2] = biological target: human TS (Homo sapiens, UniProt P04818); experiment: Inhibition of the enzymatic activity of thymidylate synthase; format: biochemical
Sequence of human TS (P04818 whole entry): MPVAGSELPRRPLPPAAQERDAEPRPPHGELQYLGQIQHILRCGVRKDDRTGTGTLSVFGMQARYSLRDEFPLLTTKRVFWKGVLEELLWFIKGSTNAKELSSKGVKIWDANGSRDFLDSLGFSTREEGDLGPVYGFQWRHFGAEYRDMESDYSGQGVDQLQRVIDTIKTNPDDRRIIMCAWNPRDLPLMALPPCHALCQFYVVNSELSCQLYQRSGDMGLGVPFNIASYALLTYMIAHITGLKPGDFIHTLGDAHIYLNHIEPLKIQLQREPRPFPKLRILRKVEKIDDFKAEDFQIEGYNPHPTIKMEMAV

[3] = test system: PDAC; experiment: Inhibition of PDAC in vivo by combination with KRAS/PI-3K/AKT/mTOR pathway inhibitors; conditions: partner inhibitors not named

| mode of inhibition of the enzymatic activity of human TS [2] | Structure (SMILES) | growth inhibition effect on cell viability [1] | synergy with inhibitors of the KRAS/PI-3K/AKT/mTOR pathway to inhibit PDAC in vivo [3] |
| --- | --- | --- | --- |
|  | Cl.Cl.NC1(c2ccc(-c3nc4ccn5c(=O)[nH]nc5c4cc3-c3ccccc3)cc2)CCC1 [MK-2206, 8-[4-(1-aminocyclobutyl)phenyl]-9-phenyl-2H-[1,2,4]triazolo[3,4-f][1,6]naphthyridin-3-one; dihydrochloride] | fully cytotoxic in 3 out of 4 cell lines |  |
|  | CO[C@H]1C[C@@H]2CC[C@@H](C)[C@@](O)(O2)C(=O)C(=O)N2CCCC[C@H]2C(=O)O[C@H]([C@H](C)C[C@@H]2CC[C@@H](OCCO)[C@H](OC)C2)CC(=O)[C@H](C)/C=C(\C)[C@@H](O)[C@@H](OC)C(=O)[C@H](C)C[C@H](C)/C=C/C=C/C=C/1C [Everolimus, (1S,9R,15R,16E,18R,19R,21S,23R,24E,26E,28E,30S,32R,35S)-1,18-dihydroxy-12-[(2S)-1-[(1S,3R,4R)-4-(2-hydroxyethoxy)-3-methoxycyclohexyl]propan-2-yl]-19,30-dimethoxy-15,17,21,23,29,35-hexamethyl-11,36-dioxa-4-azatricyclo[30.3.1.0^4,^9]hexatriaconta-16,24,26,28-tetraene-2,3,10,14,20-pentone] | potently cytostatic |  |
|  | Cn1c(=O)n(-c2ccc(C(C)(C)C#N)cc2)c2c3cc(-c4cnc5ccccc5c4)ccc3ncc21 [BEZ235, 2-methyl-2-[4-(3-methyl-2-oxo-8-quinolin-3-ylimidazo[4,5-c]quinolin-1-yl)phenyl]propanenitrile] | fully cytotoxic in 3 out of 4 cell lines |  |
| partial mixed-type | OC(c1cc(C(F)(F)F)nc2c(C(F)(F)F)cccc12)C1CCCCN1 (stereo not drawn) [Compound P, [2,8-bis(trifluoromethyl)quinolin-4-yl]-piperidin-2-ylmethanol] | cytotoxic in all cell lines tested | synergizes |
